Results reported in US20070128217A1 (priority 2003, published 2007).

Columns and labels:
[1] = system: control sera (pooled serum of ten healthy LUMC hospital workers; commercial negative donor pooled serum from the Dutch bloodbank); type: binding, human; set-up: Binding of Control serum LUMC to linear peptides / Binding of Control serum Blood-bank to linear peptides / Binding of Control serum LUMC to looped peptides / Binding of Control Serum Blood-Bank to Looped peptides / Binding of Control serum LUMC to linear peptides of the protein M of SARS-CoV Urbani / Binding of Control serum Blood-bank to linear peptides of the protein M of SARS-CoV Urbani / Binding of Control serum LUMC to looped peptides of the protein M of SARS-CoV Urbani / Binding of Control Serum Blood-Bank to Looped peptides of the protein M of SARS-CoV Urbani: unit not given here
[2] = system: antibodies in sera from SARS patients (sera 1a, 1b, 2, 6, 37, 62, London, SARS-yellow, SARS-green); type: binding, human; set-up: Binding of serum 6 to linear peptides of protein X1 of SARS-CoV Urbani / Binding of serum 37 to linear peptides of protein X1 of SARS-CoV Urbani / Binding of serum 6 to looped/cyclic peptide (PEPSCAN-ELISA) / Binding of serum 37 to looped/cyclic peptide (PEPSCAN-ELISA) / Binding of serum 37 to looped/cyclic peptides of protein X1 of SARS-CoV Urbani / Binding of serum 6 to linear peptides of protein X2 / Binding of serum 37 to linear peptides of protein X2 / Binding of serum 37 to looped/cyclic peptides of protein X2 of SARS-CoV Urbani / Binding of serum 6 to linear peptides of protein M of SARS-CoV Urbani / Binding of serum 37 to linear peptides of protein M of SARS-CoV Urbani / Binding of serum 6 to looped/cyclic peptides of protein M of SARS-CoV Urbani / Binding of serum 37 to looped/cyclic peptides of protein M of SARS-CoV Urbani / Binding of serum 6 to linear peptides of protein X3 of SARS-CoV Urbani / Binding of serum 37 to linear peptides of protein X3 of SARS-CoV Urbani / Binding of serum 37 to looped/cyclic peptides of protein X3 of SARS-CoV Urbani / Binding of serum 6 to linear peptides of protein X4 of SARS-CoV Urbani / Binding of serum 37 to linear peptides of protein X4 of SARS-CoV Urbani / Binding of serum 37 to looped/cyclic peptides of protein X4 of SARS-CoV Urbani / Binding of serum 6 to linear peptides of protein X5 of SARS-CoV Urbani / Binding of serum 37 to linear peptides of protein X5 of SARS-CoV Urbani / Binding of serum 37 to looped/cyclic peptides of protein X5 of SARS-CoV Urbani / Binding of serum 6 to linear peptides of protein N of SARS-CoV Urbani / Binding of serum 37 to linear peptides of protein N of SARS-CoV Urbani / Binding of serum 6 to linear peptide (PEPSCAN-ELISA) / Binding of serum 1a to looped/cyclic peptides of protein N of SARS-CoV Urbani / Binding of serum 1b to looped/cyclic peptides of protein N of SARS-CoV Urbani / Binding of serum 2 to looped/cyclic peptides of protein N of SARS-CoV Urbani / Binding of serum 6 to looped/cyclic peptides of protein N of SARS-CoV Urbani / Binding of serum 37 to looped/cyclic peptides of protein N of SARS-CoV Urbani / Binding of serum 62 to looped/cyclic peptides of protein N of SARS-CoV Urbani / Binding of serum London to looped/cyclic peptides of protein N of SARS-CoV Urbani / Binding of serum SARS-green to looped/cyclic peptides of protein N of SARS-CoV Urbani: unit not given here
[3] = system: rabbit serum obtained by immunizing a rabbit with the SARS-CoV strain Frankfurt 1; type: binding; set-up: Binding of a rabbit serum to linear peptides / Binding of a rabbit serum to looped peptides / Rabbit serum linear peptides / Rabbit serum looped peptides / Binding of a rabbit serum to linear peptides of protein N of SARS-CoV Urbani (Rabbit serum linear peptides) / Binding of a rabbit serum to looped/cyclic peptides of protein N of SARS-CoV Urbani (Rabbit serum looped peptides): unit not given here

SMWSFNPETNILLNV
Binding of Control Serum Blood-Bank to Looped peptides of the protein M of SARS-CoV Urbani [1]: 0.8 | Binding of Control serum Blood-bank to linear peptides of the protein M of SARS-CoV Urbani [1]: 0.8 | Binding of Control serum LUMC to linear peptides of the protein M of SARS-CoV Urbani [1]: 0.8 | Binding of Control serum LUMC to looped peptides of the protein M of SARS-CoV Urbani [1]: 0.7 | Binding of serum 1a to linear peptides of protein M of SARS-CoV Urbani [2]: 0.8 | Binding of serum 1a to looped/cyclic peptides of protein M of SARS-CoV Urbani [2]: 0.7 | Binding of serum 1b to linear peptides of protein M of SARS-CoV Urbani [2]: 0.7 | Binding of serum 1b to looped/cyclic peptides of protein M of SARS-CoV Urbani [2]: 0.1 | Binding of serum 2 to linear peptides of protein M of SARS-CoV Urbani [2]: 0.5 | Binding of serum 2 to looped/cyclic peptides of protein M of SARS-CoV Urbani [2]: 0.8 | Binding of serum 6 to linear peptides of protein M of SARS-CoV Urbani [2]: 0.5 | Binding of serum 6 to looped/cyclic peptides of protein M of SARS-CoV Urbani [2]: 0.6 | Binding of serum 37 to linear peptides of protein M of SARS-CoV Urbani [2]: 0.5 | Binding of serum 37 to looped/cyclic peptides of protein M of SARS-CoV Urbani [2]: 0.8 | Binding of serum 62 to linear peptides of protein M of SARS-CoV Urbani [2]: 0.5 | Binding of serum 62 to looped/cyclic peptides of protein M of SARS-CoV Urbani [2]: 0.7 | Binding of serum London to linear peptides of protein M of SARS-CoV Urbani [2]: 0.4 | Binding of serum London to looped/cyclic peptides of protein M of SARS-CoV Urbani [2]: 0.2 | Binding of serum SARS-green to linear peptides of protein M of SARS-CoV Urbani [2]: 0.5 | Binding of serum SARS-green to looped/cyclic peptides of protein M of SARS-CoV Urbani [2]: 0.2 | Binding of serum SARS-yellow to linear peptides of protein M of SARS-CoV Urbani [2]: 0.2 | Binding of serum SARS-yellow to looped/cyclic peptides of protein M of SARS-CoV Urbani [2]: 0.7 | Rabbit serum linear peptides [3]: 0.2 | Rabbit serum looped peptides [3]: 0.4

SPLFLIVAALVFLIL
Binding of Control Serum Blood-Bank to Looped peptides [1]: 0.3 | Binding of Control serum Blood-bank to linear peptides [1]: 0.4 | Binding of Control serum LUMC to linear peptides [1]: 0.3 | Binding of Control serum LUMC to looped peptides [1]: 0.5 | Binding of serum 1a to linear peptides of protein X4 of SARS-CoV Urbani [2]: 0.6 | Binding of serum 1a to looped/cyclic peptides of protein X4 of SARS-CoV Urbani [2]: 0.6 | Binding of serum 1b to linear peptides of protein X4 of SARS-CoV Urbani [2]: 0.2 | Binding of serum 1b to looped/cyclic peptides of protein X4 of SARS-CoV Urbani [2]: 0.4 | Binding of serum 2 to linear peptides of protein X4 of SARS-CoV Urbani [2]: 0.5 | Binding of serum 2 to looped/cyclic peptides of protein X4 of SARS-CoV Urbani [2]: 0.7 | Binding of serum 6 to linear peptides of protein X4 of SARS-CoV Urbani [2]: 0.2 | Binding of serum 6 to looped/cyclic peptides of protein X4 of SARS-CoV Urbani [2]: 0.3 | Binding of serum 37 to linear peptides of protein X4 of SARS-CoV Urbani [2]: 0.6 | Binding of serum 37 to looped/cyclic peptides of protein X4 of SARS-CoV Urbani [2]: 0.7 | Binding of serum 62 to linear peptides of protein X4 of SARS-CoV Urbani [2]: 0.6 | Binding of serum 62 to looped/cyclic peptides of protein X4 of SARS-CoV Urbani [2]: 0.2 | Binding of serum London to linear peptides of protein X4 of SARS-CoV Urbani [2]: 0.6 | Binding of serum London to looped/cyclic peptides of protein X4 of SARS-CoV Urbani [2]: 0.4 | Binding of serum SARS-green to linear peptides of protein X4 of SARS-CoV Urbani [2]: 0.5 | Binding of serum SARS-green to looped/cyclic peptides of protein X4 of SARS-CoV Urbani [2]: 0.6 | Binding of serum SARS-yellow to linear peptides of protein X4 of SARS-CoV Urbani [2]: 0.3 | Binding of serum SARS-yellow to looped/cyclic peptides of protein X4 of SARS-CoV Urbani [2]: 0.3 | Rabbit serum linear peptides [3]: 0.5 | Rabbit serum looped peptides [3]: 0.8

SQRVGTDSGFAAYNR
Binding of Control Serum Blood-Bank to Looped peptides of the protein M of SARS-CoV Urbani [1]: 0.7 | Binding of Control serum Blood-bank to linear peptides of the protein M of SARS-CoV Urbani [1]: 0.9 | Binding of Control serum LUMC to linear peptides of the protein M of SARS-CoV Urbani [1]: 1.0 | Binding of Control serum LUMC to looped peptides of the protein M of SARS-CoV Urbani [1]: 0.6 | Binding of serum 1a to linear peptides of protein M of SARS-CoV Urbani [2]: 0.8 | Binding of serum 1a to looped/cyclic peptides of protein M of SARS-CoV Urbani [2]: 0.5 | Binding of serum 1b to linear peptides of protein M of SARS-CoV Urbani [2]: 0.6 | Binding of serum 1b to looped/cyclic peptides of protein M of SARS-CoV Urbani [2]: 0.4 | Binding of serum 2 to linear peptides of protein M of SARS-CoV Urbani [2]: 0.4 | Binding of serum 2 to looped/cyclic peptides of protein M of SARS-CoV Urbani [2]: 0.7 | Binding of serum 6 to linear peptides of protein M of SARS-CoV Urbani [2]: 0.6 | Binding of serum 6 to looped/cyclic peptides of protein M of SARS-CoV Urbani [2]: 0.6 | Binding of serum 37 to linear peptides of protein M of SARS-CoV Urbani [2]: 0.5 | Binding of serum 37 to looped/cyclic peptides of protein M of SARS-CoV Urbani [2]: 0.2 | Binding of serum 62 to linear peptides of protein M of SARS-CoV Urbani [2]: 0.4 | Binding of serum 62 to looped/cyclic peptides of protein M of SARS-CoV Urbani [2]: 0.5 | Binding of serum London to linear peptides of protein M of SARS-CoV Urbani [2]: 0.4 | Binding of serum London to looped/cyclic peptides of protein M of SARS-CoV Urbani [2]: 0.2 | Binding of serum SARS-green to linear peptides of protein M of SARS-CoV Urbani [2]: 0.5 | Binding of serum SARS-green to looped/cyclic peptides of protein M of SARS-CoV Urbani [2]: 0.4 | Binding of serum SARS-yellow to linear peptides of protein M of SARS-CoV Urbani [2]: 0.5 | Binding of serum SARS-yellow to looped/cyclic peptides of protein M of SARS-CoV Urbani [2]: 0.6 | Rabbit serum linear peptides [3]: 0.2 | Rabbit serum looped peptides [3]: 0.1

SRRRLLACLCKHKKV
Binding of Control Serum Blood-Bank to Looped peptides [1]: 0.2 | Binding of Control serum Blood-bank to linear peptides [1]: 0.9 | Binding of Control serum LUMC to linear peptides [1]: 0.6 | Binding of Control serum LUMC to looped peptides [1]: 0.2 | Binding of serum 1a to looped/cyclic peptides of protein X2 of SARS-CoV Urbani [2]: 0.2 | Binding of serum 1b to looped/cyclic peptides of protein X2 of SARS-CoV Urbani [2]: 0.2 | Binding of serum 2 to looped/cyclic peptides of protein X2 of SARS-CoV Urbani [2]: 0.1 | Binding of serum 6 to looped/cyclic peptides of protein X2 of SARS-CoV Urbani [2]: 0.0 | Binding of serum 37 to looped/cyclic peptides of protein X2 of SARS-CoV Urbani [2]: 0.2 | Binding of serum 62 to looped/cyclic peptides of protein X2 of SARS-CoV Urbani [2]: 0.3 | Binding of serum London to looped/cyclic peptides of protein X2 of SARS-CoV Urbani [2]: 0.1 | Binding of serum SARS-green to looped/cyclic peptides of protein X2 of SARS-CoV Urbani [2]: 0.2 | Binding of serum SARS-yellow to looped/cyclic peptides of protein X2 of SARS-CoV Urbani [2]: 0.2 | Recognition of the peptide by sera of SARS-CoV infected individuals, and form (linear, looped/cyclic) in which it is recognized [2]: recognized in linear form | Binding of a rabbit serum to linear peptides [3]: 0.3 | Binding of a rabbit serum to looped peptides [3]: 0.4
